Article PMC6694196, “Intrinsic tryptophan fluorescence spectroscopy reliably determines galectin-ligand interactions” (Scientific Reports, 2019)
“And” between values parts separate entries of the source, which are not always exact repeats. Identical values can stand only once. “Also recorded” adds a separate entry of the source.

Assays:
galectin-4 [1] = target: T1, galectin-4 (Homo sapiens, UniProt P56470); assay: ITC of galectin-4-ligand interaction; format: binding; details: for binding by ITC (in words): galectin-4 100 µM, 200 mM galactose
T1 construct: 6xHis-SUMO (N, cleaved yes); made in house; host or cells: E. coli BL21(DE3)
T1 sequence (P56470 1-323): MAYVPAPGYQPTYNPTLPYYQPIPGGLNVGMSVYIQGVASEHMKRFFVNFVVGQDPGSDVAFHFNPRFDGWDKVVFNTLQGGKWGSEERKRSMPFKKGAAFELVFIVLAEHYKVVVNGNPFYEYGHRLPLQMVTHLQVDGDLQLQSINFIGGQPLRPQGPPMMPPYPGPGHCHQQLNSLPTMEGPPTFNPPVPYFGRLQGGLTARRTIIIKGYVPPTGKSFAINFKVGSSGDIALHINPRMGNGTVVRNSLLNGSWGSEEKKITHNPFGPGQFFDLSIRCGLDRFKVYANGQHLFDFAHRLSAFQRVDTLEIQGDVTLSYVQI
Experimental: (§1) ITC experiments were performed at 25 °C using a MicroCal iTC200 microcalorimeter (Malvern Analytical Ltd, Malvern, UK) with 200 µl cell capacity and 40 µl injection syringe volume. All galectins were used at 100 µM in PBS and the binding ligands were prepared in identical buffers. […] F3 was titrated into galectin-3 at concentration of 20 mM. Ligand-to-buffer and buffer-to-galectin titrations were performed as controls. Ligands were titrated in 19 injections of 2 µl aliquots with 120 s spacing between injections to allow baseline recovery. The ITC titration data were analysed using MicroCal Data Analysis for iTC200 which is an Origin 7.0-based software programme. A curve fit using the ‘One set of sites’ interaction model was used to determine the association constant (KA), stoichiometry of binding (N) and enthalpy change (∆H) for all the interactions of simple sugars with the galectins except F3, where a logistic fit was used due to the nature of F3 as a mixture of heterogeneous polysaccharides.

galectin-2 [2] = target: T2, galectin-2 (Homo sapiens, UniProt P05162); assay: ITC of galectin-2-ligand interaction; format: binding; details: for binding by ITC (in words): 200 mM galactose
T2 construct: full length human galectin-2 (residues 1–132, UniProt code: P05162); 6xHis-SUMO (N, cleaved yes); made in house; host or cells: E. coli BL21(DE3)
T2 sequence (P05162 1-132): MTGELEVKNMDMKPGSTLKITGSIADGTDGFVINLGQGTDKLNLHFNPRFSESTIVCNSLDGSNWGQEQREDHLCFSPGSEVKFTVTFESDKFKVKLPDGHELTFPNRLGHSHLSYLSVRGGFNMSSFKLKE
Experimental: as §1

[3] = target: T3, galectin-4N (residues 1–152) (Homo sapiens, UniProt P56470); assay: TFS of galectin-4N-ligand interaction; format: binding; details: galectin-4N 5 µM, PBS, 25 °C
T3 construct: N-terminal galectin-4 (galectin-4N, residues 1–152); His-tag (pET47b, HRV3C-cleavable) (cleaved yes); made in house; host or cells: E. coli BL21(DE3)
T3 sequence (P56470 1-152): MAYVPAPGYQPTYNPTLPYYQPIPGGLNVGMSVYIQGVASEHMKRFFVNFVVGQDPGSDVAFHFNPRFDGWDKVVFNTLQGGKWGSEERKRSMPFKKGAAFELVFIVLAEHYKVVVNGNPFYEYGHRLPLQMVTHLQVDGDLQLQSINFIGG
Experimental: (§2) All tryptophan fluorescence spectroscopy experiments were performed using CARY Eclipse Fluorescence Spectrophotometer (Varian Inc. Santa Clara, California, USA) and a 3 ml quartz cuvette. […] The temperature was maintained constant at 25 °C by an external thermostatic water circulator. To measure galectin-ligand interactions, recombinant galectin-2 at 20 µM, galectin-3 at 10 µM and galectin-4, -4N and -4C at 5 µM were allowed to equilibrate in PBS for 10–30 minutes under constant stirring before being titrated with testing carbohydrate ligand solutions. […] Control buffer titrations to galectin solutions were performed in parallel for background determination in each experiment. Data from three independent experiments were analysed using nonlinear regression with ‘One Site- Specific Binding’ model (Y = Bmax * X/(KD + X) where X is the ligand concentration, Y is the fluorescence intensity, Bmax is the maximum specific binding and KD is the equilibrium binding constant) in GraphPad Prism 7.04.

[4] = target: T4, galectin-4C (residues 153–323) (Homo sapiens, UniProt P56470); assay: TFS of galectin-4C-ligand interaction; format: binding; details: galectin-4C 5 µM, PBS, 25 °C
T4 construct: His-tag (pET47b, HRV3C-cleavable) (cleaved yes); made in house; host or cells: E. coli BL21(DE3)
T4 sequence (P56470 153-323): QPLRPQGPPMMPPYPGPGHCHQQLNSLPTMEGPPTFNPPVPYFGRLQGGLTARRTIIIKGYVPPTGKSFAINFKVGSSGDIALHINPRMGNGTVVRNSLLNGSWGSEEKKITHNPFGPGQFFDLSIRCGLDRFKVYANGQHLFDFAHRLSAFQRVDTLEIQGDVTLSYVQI
Experimental: as §2

galectin-3 [5] = target: T5, galectin-3 (Homo sapiens, UniProt P17931); assay: Isothermal titration calorimetry (ITC) of galectin-3-ligand interaction; format: binding; details: for Kd: galectin-3 100 µM, PBS, 25 °C
T5 construct: full-length human galectin-3 (residues 1–250, UniProt code: P17931); His-tag (N, cleaved yes); made in house; host or cells: E. coli BL21(DE3)
T5 sequence (P17931 whole entry, the tested form may be a part): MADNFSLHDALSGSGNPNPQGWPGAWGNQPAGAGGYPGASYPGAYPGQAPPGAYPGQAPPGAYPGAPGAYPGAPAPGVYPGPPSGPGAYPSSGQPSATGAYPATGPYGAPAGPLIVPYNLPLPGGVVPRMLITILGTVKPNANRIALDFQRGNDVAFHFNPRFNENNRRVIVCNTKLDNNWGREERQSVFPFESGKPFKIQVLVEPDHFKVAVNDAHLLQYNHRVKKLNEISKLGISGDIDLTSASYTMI
Experimental: ITC experiments were performed at 25 °C using a MicroCal iTC200 microcalorimeter (Malvern Analytical Ltd, Malvern, UK) with 200 µl cell capacity and 40 µl injection syringe volume. […] Ligand-to-buffer and buffer-to-galectin titrations were performed as controls. Ligands were titrated in 19 injections of 2 µl aliquots with 120 s spacing between injections to allow baseline recovery. The ITC titration data were analysed using MicroCal Data Analysis for iTC200 which is an Origin 7.0-based software programme.

galectin-3 [6] = target: T5, galectin-3; assay: Tryptophan fluorescence spectroscopy (TFS) of galectin-3-ligand interaction; format: binding; details: for Kd: galectin-3 10 µM, PBS, 25 °C, One site-Specific binding model; for maximum ligand binding-induced change of intrinsic fluorescence intensity: galectin-3, buffer control titration subtracted; for shift of fluorescence emission maximum to lower wavelength (blue shift): galectin-3, ligand titration
Experimental: as §2, with “circulator.” for “circulator. To measure galectin-ligand interactions, recombinant galectin-2 at 20 µM, galectin-3 at 10 µM and galectin-4, -4N and -4C at 5 µM were allowed to equilibrate in PBS for 10–30 minutes under constant stirring before being titrated with testing carbohydrate ligand solutions.”

galectin-2 [7] = target: T2, galectin-2; assay: TFS of galectin-2-ligand interaction; format: binding; details: for blue shift of maximum fluorescence peak: galectin-2; for Kd: galectin-2 20 µM, PBS, 25 °C, mean ± SEM; for maximum ligand binding-induced fluorescence intensity change: galectin-2, buffer titration subtracted
Experimental: as §2

[8] = target: T4, galectin-4C (residues 153–323); assay: ITC of galectin-4C-ligand interaction; format: binding; details: for binding by ITC (in words): galectin-4C 100 µM
Experimental: as §1

galectin-4C = test system: galectin-4C; parameters: method as in PMID 15464951, PMID 26077389; details: fluorescence anisotropy, LacNAc vs lactose; cited from earlier work
galectin-4 [9] = target: T1, galectin-4; assay: TFS of galectin-4-ligand interaction; format: binding; details: for Kd: full-length galectin-4 5 µM, PBS, 25 °C; for blue shift of maximum fluorescence peak: galectin-4; for maximum ligand binding-induced fluorescence intensity change: galectin-4, control buffer titration deducted
Experimental: as §2

[10] = target: T3, galectin-4N (residues 1–152); assay: ITC of galectin-4N-ligand interaction; format: binding; details: galectin-4N 100 µM, 200 mM galactose
Experimental: as §1

galectin-2 [11] = target: galectin-2; parameters: method as in PMID 12223272; details: frontal affinity chromatography, read-out: binding affinity; cited from earlier work
galectin-4 [12] = target: galectin-4; parameters: method as in PMID 15546874; details: SPR, read-out: binding affinity; cited from earlier work

## CC(=O)N[C@H]1C(O)O[C@H](CO)[C@@H](O[C@@H]2O[C@H](CO)[C@H](O)[C@H](O)[C@H]2O)[C@@H]1O (stereo partly drawn) [LacNAc, N-Acetyl-D-lactosamine]
galectin-4 [1]; full-length galectin-4 100 µM, PBS, 25 °C, read-out: KD
  Kd: 3.5 ± 0.5 mM
galectin-2 [2]; ITC, galectin-2 100 µM, PBS, 25 °C, mean ± SEM, n=3, read-out: KD
  Kd: 0.554 ± 0.108 mM
galectin-2 [2]; ITC, galectin-2, LacNAc vs lactose
  fold stronger binding than lactose: ~ 2 fold
[3]
  Kd: 7.4 ± 0.9 mM
[4]
  Kd: 12.1 ± 0.7 mM
galectin-3 [5]; galectin-3
  enthalpy ∆H of binding: -16.5 kcal/mol
galectin-3 [5]; One set of sites model, mean ± SEM, n=3
  Kd: 0.024 ± 0.0036 mM
galectin-3 [5]; galectin-3, LacNAc vs lactose
  difference in enthalpy change to lactose: 4.4 kcal/mol
  fold stronger binding than lactose: ~ 4 fold
galectin-3 [5]; galectin-3, weakest ligand galactose to strongest ligand LacNAc
  difference in binding enthalpy to galactose: 6.1 kcal/mol
galectin-3 [6]; mean ± SEM, n=3
  Kd: 0.0279 ± 0.0046 mM
galectin-3 [6]
  maximum ligand binding-induced change of intrinsic fluorescence intensity: 26 units
  shift of fluorescence emission maximum to lower wavelength (blue shift): 9–10 nm
galectin-2 [7]
  blue shift of maximum fluorescence peak: 10 nm
  maximum ligand binding-induced fluorescence intensity change: 52 units
galectin-2 [7]; n=3, read-out: KD
  Kd: 0.654 ± 0.155 mM
[8]
  binding by ITC (in words): very too weak and mostly beyond detection
galectin-4C
  fold weaker binding than lactose: at least 11 fold
galectin-4 [9]; read-out: KD
  Kd: 9.3 ± 0.8 mM
galectin-4 [9]
  blue shift of maximum fluorescence peak: 5 nm
  maximum ligand binding-induced fluorescence intensity change: 50 units

## O=C[C@H](O)[C@@H](O)[C@@H](O)[C@H](O)CO [galactose, D-galactose]
galectin-4 [1]
  binding by ITC (in words): too weak to be determined
galectin-4 [1]; listed as Galactose
  binding by ITC (in words): too weak to be reliably determined
galectin-4 [1]; galectin-4, Fig. 5I, read-out: KD (class symbol in figure)
  Kd: > 1 mM
galectin-2 [2]
  Kd: > 1 mM
galectin-2 [2]; ITC, galectin-2 100 µM
  binding by ITC (in words): too weak to be determined
galectin-2 [2]; ITC, galectin-2 100 µM, listed as Galactose
  binding by ITC (in words): too weak to be reliably determined
[3]
  Kd: 43.3 ± 5.2 mM
[4]
  Kd: 33.8 ± 3 mM
galectin-3 [5]; One set of sites model (F3: logistic fit)
  Kd: 3.1 ± 1.1 mM
galectin-3 [6]
  Kd: 4.7 mM and ~5 mM
  maximum ligand binding-induced change of intrinsic fluorescence intensity: 28 units
  shift of fluorescence emission maximum to lower wavelength (blue shift): 9–10 nm
galectin-2 [7]; KD, n=3
  Kd: 35.6 mM and 30 to 40 mM
galectin-2 [7]
  blue shift of maximum fluorescence peak: 6 nm
  maximum ligand binding-induced fluorescence intensity change: 57 units
[8]
  binding by ITC (in words): very too weak and mostly beyond detection
[8]; galectin-4C, Fig. 7G,I, read-out: KD (class symbol in figure)
  Kd: > 1 mM
[10]
  binding by ITC (in words): very little, if any, binding taking place; also recorded: very too weak and mostly beyond detection
galectin-4 [9]; KD
  Kd: 33.6 mM and 30 to 40 mM
galectin-4 [9]
  blue shift of maximum fluorescence peak: 4 nm
  maximum ligand binding-induced fluorescence intensity change: 80 units

## α-lactose
galectin-2 [11]
  Kd: 1.1 mM
galectin-3 [6]
  maximum ligand binding-induced change of intrinsic fluorescence intensity: 21 units
  shift of fluorescence emission maximum to lower wavelength (blue shift): 9–10 nm
galectin-4 [12]
  Kd: 0.86 mM
galectin-2 [7]
  blue shift of maximum fluorescence peak: 7 nm
  maximum ligand binding-induced fluorescence intensity change: 59 units
galectin-4 [9]
  blue shift of maximum fluorescence peak: 10 nm
  maximum ligand binding-induced fluorescence intensity change: 49 units
